Measurements: patent US10717968B2, “Polymerases for nucleotide analogue incorporation” (Pacific Biosciences of California, Inc., priority 2005, dated 2020)

Assays:
Assay type in all cases: biochemical
[1] = test system: natural (native) nucleotides; assay: Initial characterization: specific activity with natural (native) nucleotides
Description: The recombinant polymerase is initially evaluated on the quality of the protein preparation and basic catalytic activity. The polymerase's activity is analyzed with natural (native) nucleotides, and its specific activity (units/mg) is determined. Only catalytically competent mutants are selected for the next steps.

[2] = test system: dTTP, dATP, dGTP; assay: Assay with three native nucleotides (dGTP, dTTP and dATP); details: three native nucleotides at 20 μM; circular template, no G residues
Description: (§1) The Φ29 DNA polymerase (parental enzyme or mutant) was preincubated with DNA template (72 nucleotide circular DNA including mostly repetitive sequence AGTC) with annealed DNA primer. The preincubation mix includes three native nucleotides (dTTP, dATP and dGTP) and a terminal labeled nucleotide analogue (A488dC4P or A568dC4P) at 10 μM concentration. After a short preincubation, the reaction was started with MnCl2. The reaction was stopped with EDTA, and the products were separated using agarose gel electrophoresis and stained with SYBR Gold (Invitrogen). The average length of the DNA generated with DNA polymerase was determined and used to estimate the polymerization rate. See, e.g., Table 2 Columns G and H.
The Φ29 DNA polymerase (parental enzyme or mutant) was preincubated with DNA template (circular DNA including mostly repetitive sequence CAT, no G residues) with annealed DNA primer; the preincubation mix includes three native nucleotides (dTTP, dATP and dGTP). All subsequent steps were basically as described above in the section entitled “Assay with a single analogue at low concentration (10 μM) and three native nucleotides.” See, e.g., Table 2 Column B.

[3] = test system: A488dC4P; assay: Nucleotide analogue concentration dependence of the polymerization rate, A488dC4P; details: for A488dC4P, kel / Km: circular AGTC template, dTTP, dATP, dGTP 20 μM each; for Km as % of the Km of N62D Φ29 for A488dC4P: relative to N62D Φ29, from Table 2
Description: (§2) The most promising polymerase mutants are characterized by determination of the polymerization rate and Km for A488dC4P and A568dC4P and a subset of natural nucleotides (dATP, dGTP and dTTP), using a circular template (AGTC). Velocity is measured at several different concentrations of the analogs, A488dC4P (a representative good substrate) and A568dC4P (a representative less preferred substrate).
(§3) The Φ29 DNA polymerase (parental enzyme or mutant) was preincubated with a DNA template (72 nucleotide circular DNA including mostly repetitive sequence AGTC) with annealed DNA primer. The preincubation mix includes also three native nucleotides (dTTP, dATP and dGTP 20 μM each) and various concentrations of the terminally labeled analogue (A488dC4P or A568dC4P). All subsequent steps were basically as described above in the section entitled “Assay with a single analogue at low concentration (10 μM) and three native nucleotides.” An average length of the DNA products generated with DNA polymerase at an individual analogue concentration was determined, and the results were fitted with the equation k=kel*[S]*(Kd+[S])^−1 where k is the observed polymerization rate, kel is the polymerization rate at saturating substrate concentration (kel measures incorporation of multiple residues), and [S] is substrate concentration. See, e.g., Table 2 Columns C, D, E, and F.

[4] = test system: A568dC4P; assay: Nucleotide analogue concentration dependence of the polymerization rate, A568dC4P; details: for A568dC4P, kel / Km: circular AGTC template, dTTP, dATP, dGTP 20 μM each; for Km as % of the Km of N62D Φ29 for A568dC4P: relative to N62D Φ29, from Table 2
Description: as §2, §3

[5] = test system: A488dC4P; assay: Assay with a single analogue at low concentration (10 μM) and three native nucleotides, A488dC4P; details: single analogue at 10 μM and three native nucleotides
Description: as §1

[6] = test system: A568dC4P; assay: Assay with a single analogue at low concentration (10 μM) and three native nucleotides, A568dC4P; details: single analogue at 10 μM and three native nucleotides
Description: as §1

[7] = test system: A488dA4P, A633dC4P, A546dG4P, A594dT4P; assay: Assay with four terminally labeled nucleotide analogs; details: four terminally labeled analogs all at 10 μM
Description: Polymerization rate (bases/min) with four analogues at 10 μM (A488dA4P, A633dC4P, A546dG4P and A594dT4P) and circular template (AGTC, a 72mer circular template largely consisting of a repeating AGTC motif) is determined.
The procedure is basically as described above in the section entitled “Assay with a single analogue at low concentration (10 μM) and three native nucleotides,” with the exception that in this assay all nucleotides are terminally labeled (A488dA4P, A633dC4P, A546dG4P, A594dT4P all at 10 μM). See, e.g., Table 2 Column I.

[8] = test system: DNA template (72 nucleotide circular DNA) with annealed DNA primer; assay: Processivity assay; details: dNTP, MnCl2, heparin trap, 20 min; 1.0 minus Poff
From the text: The processivity (dissociation/kb) of the polymerase is estimated in a primer extension reaction performed in the presence of “Trap” (unlabeled competitor DNA or heparin). The processivity assay is designed to select mutants that retain the capability to synthesize a long DNA product in a continuous polymerization run (without polymerization reinitiation) with natural nucleotides. Mutants with a significant decrease in processivity are not selected for the next step.
The Φ29 DNA polymerase (parental enzyme or mutant) was preincubated with DNA template (72 nucleotide circular DNA including mostly repetitive sequence AGTC) with annealed DNA primer. After a short preincubation, the reaction was started with a starting mix including MnCl2, dNTP and heparin. Including the heparin in the reaction prevents polymerization from reinitiating after the polymerase dissociates from the template/primer, so that all generated DNA products are a result of continuous polymerization runs. After 20 min incubation, the reaction was stopped with EDTA and the products were separated using agarose gel electrophoresis and stained with SYBR Gold (Invitrogen). The DNA products were analyzed basically as described in Bibillo A, Eickbush T H. J Biol Chem. 2002 Sep. 20; 277(38):34836-45, Epub 2002 Jul. 5. The results were fitted with single exponential equation A*exp(−Poff*kb) where A is amplitude, Poff is the probability of premature polymerase dissociation, and kb is DNA length (1000 nucleotides). The probability of chain elongation (processivity) can be readily calculated by subtracting the Poff value from 1.0. See, e.g., Table 2 Column J.

[9] = test system: Alexa633-O-dC4P; assay: Km and Vmax versus analogue Alexa633-O-dC4P; details: Alexa633-O-dC4P (A633dC4P)
Description: (§4) Km and Vmax were determined for exemplary recombinant Phi29 polymerases and various nucleotide analogues.

[10] = test system: Alexa555-C2-dT4P; assay: Km and Vmax versus analogue Alexa555-C2-dT4P
Description: as §4

[11] = test system: A633dC4P; assay: Screening: rate with A633dC4P and dA, dG, dTTP; details: for Rate High: 25 μM A633dC4P with 20 μM dA; for Ratio (Low/High): (rate at 5 μM A633dC4P)/(rate at 25 μM A633dC4P), each with 20 μM dA, 1 mM MnCl2, higher ratio = lower Km
[12] = test system: Alexa488-O-dA4P, FAM-Alexa532-O-dG4P, FAM-Alexa594-O-dT4P, Alexa633-O-dC4P; assay: Screening: rate with set of four nucleotide analogues; details: four analogues at 10 μM each, 1 mM MnCl2
[13] = test system: Alexa532-O-dG4P; assay: Km and Vmax versus analogue Alexa532-O-dG4P
Description: as §4

[14] = test system: A594-dT4P; assay: FRET stopped flow assay, rates of binding and product release; details: nucleotide analogue A594-dT4P
Description: Rates of binding and product release were determined for exemplary recombinant Phi29 polymerases with nucleotide analogue A594-dT4P using a FRET stopped flow assay as schematically illustrated in FIG. 7A. Results are depicted graphically in FIGS. 7B-D for Phi29 N62D (FIG. 7B), N62D:E375Y (FIG. 7C), and N62D:E375W (FIG. 7D).

[15] = test system: Alexa568-dA4P; assay: FRET stopped flow assay, branching rate; details: dideoxy-terminated primer, native dATP trap
Description: Relative branching rate (dissociation of the analogue without incorporation, i.e., substrate dissociation) was also determined for exemplary recombinant Phi29 polymerases with nucleotide analogue Alexa568-dA4P (also called A568-dA4P), using a FRET stopped flow assay as schematically illustrated in FIG. 8A. In this technique, a template with a FRET donor dye compatible for FRET with the corresponding dye on the nucleotide analogue is employed. The primer has a dideoxy-termination at the 3′ end to prevent incorporation. The analogue is pre-mixed with the enzyme-template-dideoxy primer complex. In the stopped flow apparatus, this preformed complex is rapidly mixed with the corresponding native nucleotide (native dATP, in this example) in excess which serves as a “trap” to prevent rebinding of the analogue after it dissociates. The increase in donor dye fluorescence is monitored as a means of monitoring the dissociation/branching rate of the analogue.

| Substance | Specific Activity [1] | dTTP, dATP, dGTP (no G fork) V at 20 μM [2] | A488dC4P, kel [3] | Km [3] | A488dC4P, V at 10 μM [5] | A568dC4P, V at 10 μM [6] | A488dA4P, A633dC4P, A546dG4P, A594dT4P, V at 10 μM [7] | Processivity [8] | Km [9] | Km [10] | Rate High [11] | Ratio (Low/High) [11] | Hz Rate [12] | Km [13] | Product Release Rate [14] | Branching Rate [15] | also measured |
| --- | --- | --- | --- | --- | --- | --- | --- | --- | --- | --- | --- | --- | --- | --- | --- | --- | --- |
| His-E375H-N62D: Phi 29 polymerase with E375H and N62D mutations (SEQ ID NOs:4, 25) | 10,945,000 units/mg | 780 | 950 bp/min | 8 µM | 411 | 366 | 123 | 0.9510 kb^−1 | 17 µM | 15 µM | 510.1 | 0.445 | 9.4 Hz | – | – | – | Km as % of the Km of N62D Φ29 for A488dC4P [3]: about 40%; A568dC4P, kel [4]: 930; Km [4]: 11 µM; Km as % of the Km of N62D Φ29 for A568dC4P [4]: about 15% |
| His-E375S-N62D: Phi 29 polymerase with E375S and N62D mutations (SEQ ID NOs:5, 26) | 10,961,000 units/mg | 940 | 1190 bp/min | 15 µM | 420 | 332 | 74 | 0.9815 kb^−1 | 16.5 µM | – | 528.4 | 0.335 | 5.9 Hz | 40 µM | – | – | Km as % of the Km of N62D Φ29 for A488dC4P [3]: about 75%; A568dC4P, kel [4]: 1300; Km [4]: 28 µM; Km as % of the Km of N62D Φ29 for A568dC4P [4]: about 38% |
| His-NipTuck_1-N62D: His-tagged N62D Phi 29 polymerase with deletion of residues 505-525 (SEQ ID NOs:12, 33) | 12,400,000 units/mg | 660 | 520 bp/min | 24 µM | 153 | 116 | 24 | 0.9585 kb^−1 | – | – | 192.4 | 0.508 | 1.3 Hz | – | – | – | – |
| N62D: E375K: Phi 29 polymerase with E375K and N62D mutations (SEQ ID NOs:6, 27) | – | – | – | – | – | – | – | – | 12 µM | – | 516.1 | 0.425 | 6.2 Hz | – | – | – | – |
| N62D: E375W: Phi29 polymerase with E375W and N62D mutations | – | – | – | – | – | – | – | – | 1.8 µM | 5 µM | 699.4 | 0.677 | 19.1 Hz | 16 µM | 76 s⁻¹ | 43 s⁻¹ | rates of binding and product release compared with the parent enzyme [14]: increased rates of binding and product release |
| N62D: E375Y: Phi29 polymerase with E375Y and N62D mutations | – | – | – | – | – | – | – | – | 2.5 µM | 6.6 µM | 498.5 | 0.694 | 12.1 Hz | 18 µM | 117 s⁻¹ | 31 s⁻¹ | rates of binding and product release compared with the parent enzyme [14]: increased rates of binding and product release |
| N62D: N62D Phi29 DNA polymerase, parent enzyme in Tables 4, 6 and 7; tag not stated [reference compound] | – | – | – | – | – | – | – | – | 23 µM | 20 µM | – | – | – | 68 µM | 55 s⁻¹ | 90 s⁻¹ | – |
